This is an account of results in US20180298344A1, “Realistic Humanized Model of Disease Matrix Environment for Evaluation of Therapeutic Reversal or Cell Fate” (Yale University, priority 2017, published 2018).

Test [1] relates to human microvascular pericytes (PC). The test can be described thus: ELISA of MMPs in supernatant of TGF-β1-activated PC with or without nintedanib. Type of test: cell-based. As to conditions: nintedanib versus TGF-β1 alone. (In general: ELISA stands for enzyme-linked immunosorbent assay.)
For test [2], the system named is idiopathic pulmonary fibrosis patients. As to conditions: IPF patients; cited from earlier work.
In test [3] the test system is cultured lung fibroblasts. As to conditions: cultured lung fibroblasts in vitro; cited from earlier work.
Test [4] relates to human microvascular pericytes (PC). Nature of the test: Short term (7 day) myofibroblast differentiation of PC on low, medium, high stiffness hydrogels with TGF-β1 or bleomycin activation. Type of test: cell-based. On the procedure: Human microvascular PC were isolated from a readily available and nearly inexhaustible source, human placental tissue, by microvascular segment explant outgrowth (Sava et al., Microcirculation, 2015, 22:54-67; Ayres-Sander et al., PLoS One, 2013, 8:e60025; Lauridsen et al., FASEB, 2014, 28:1166-1180; Maier et al., Microcirculation, 2010, 17:367-380). Human placental tissue was segmented, digested with collagenase, and the resulting cells were cultured in M199 (Gibco, Grand Island, NY, USA) medium supplemented with 20% FBS (Hyclone Laboratories, Logan, Utah, USA), and 1% penicillin-streptomycin (Gibco). Isolated pericytes were screened by flow cytometry against NG2 (H-300, Santa Cruz Biotechnology), CD90 (K-15, Santa Cruz), CD146 (P1H12, Biolegend, San Diego, Calif., USA), PDGFR-β (18A2, Santa Cruz), α-SMA (1A4, Santa Cruz), SMMHC (N-16, Santa Cruz), CD31 (C20, Santa Cruz), CD34 (581, Sigma) and CD45 (MEM-28, Sigma). As negative control, PC were incubated with isotype matched IgG. Samples were run on a Stratedigm S1000EXi Flow Cytometer (Stratedigm, San Jose, Calif. USA) and analyzed with FlowJo software (Tree Star, Ashland, Oreg., USA).
Polyacrylamide hydrogels were prepared as previously described (Tse and Engler, Current protocols in cell biology, editorial board, Juan S. Bonifacino et al, 2010, Chapter 10, Unit 10-16). Briefly, amino-silanated coverslips were prepared by treatment with 0.1M NaOH, followed by 3-aminopropyltriethoxysilane (Sigma), and crosslinked with glutaraldehyde. Chloro-silanated coverslips were treated with dichlorodimethylsilane (Sigma). Polyacrylamide solutions of varying stiffness were prepared by altering the concentrations of acrylamide (Bio-Rad, Hercules, Calif., USA) and bis-acrylamide (Bio-Rad). Ammonium persulfate (Sigma) and tetramethylethylenediamine (Bio-Rad) were used as cross-linkers. The solution was placed between the chloro-silanated and amino-silanated coverslips and cross-linked under ambient lighting for 30 minutes, after which the amino-silanated slide, containing the hydrogel, was hydrated in PBS. The ECM components were chemically conjugated to the polyacrylamide hydrogel using the naturally occurring amine residues on the proteins. Sulfa-SANPAH (Thermo Fisher, Grand Island, N.Y., USA) was added in 50 mM 4-(2-hydroxyethyl)-1-piperazineethanesulfonic acid buffer (Sigma) and the hydrogels were placed under UV light (365 nm, 10 mW/cm^2) for 15 minutes, and incubated overnight with either 0.5 mg/mL solubilized healthy or IPF human lung ECM, or isolated ECM proteins (0.1 mg/mL human plasma fibronectin (Millipore, Billerica, Mass., USA) and 0.1 mg/mL collagen I (Sigma). Validation of protein conjugation was performed by tagging ECM with NHS-Fluorescein (5/6-carboxyfluorescein succinimidyl ester), dialyzing overnight, and rinsed extensively (Syed et al., J Vis, Exp, 2015, 97).
For short term (7 day) differentiation studies, PC (passage 3-7) were seeded on healthy or IPF lung tissue slices, polyacrylamide hydrogels, or 25 mm glass coverslips (VWR) at 100×10^3 cells per sample and activated with control media (non-activated), or 1 ng/mL TGF-β1 (PeproTech, Rocky Hill, N.J., USA) for 7 days (18, 19). For bleomycin activation, the cells were activated with 1 μg/mL bleomycin sulfate (Cayman Chemical, Ann Arbor, Mich.) for 1 day and the media was replaced with non-activated media for the remaining 6 days (Sava et al., Microcirculation, 2015, 22:54-67; Sterling et al., J Bio Chem, 1983, 258:14438-14444). TGF-β1 and bleomycin concentrations were based on reports consistent with activation of fibroblasts (Sava et al., Microcirculation, 2015, 22:54-67; Maroni and Davis, Bio Reprod, 2012, 87:127). Treatment with CCG-1423 (Sigma) was performed at day 0 for the full 7 days, and labeled as early treatment, or at day 7 and performed for 7 days, and labeled as late treatment. […]

[5] abbreviates: 7 days, low, medium, high stiffness hydrogels with fibronectin and collagen I, TGF-β1 1 ng/mL 7 days or bleomycin 1 μg/mL 1 day, flow cytometry.

With `COC(=O)c1ccc2c(c1)NC(=O)/C2=C(\Nc1ccc(N(C)C(=O)CN2CCN(C)CC2)cc1)c1ccccc1` [nintedanib], the “expression of MMP10” value in test [1] is “did not increase”. Moreover, the MMP13 in supernatant result in test [1] (P<0.001) is “substantial increases”. Moreover, the MMP9 in supernatant entry in test [1] (P<0.01) is on record as “substantial increases”. Also, in test [1] (P<0.05), the MMP8 in supernatant result is “substantial increases”. Also, the “decline in forced vital capacity” value in test [2] is “reducing the decline in forced vital capacity”. The “TGF-β1-induced myofibroblast differentiation and matrix deposition” value in test [3] is “oppose”.

Consider “TGF-β1: transforming growth factor (TGF)-β1, fibrotic activator, used at 1 ng/mL”, for which, in test [4] (setting [5]), the “vimentin expression compared to non-activated PC on substrates of the same stiffness” value is “did not induce a significant increase” and the “α-SMA expression compared to non-activated PC on substrates of the same stiffness” value is on record as “did not induce a significant increase”. For the same compound, the “proportion of α-SMA-expressing PC” value in test [4] (soft or stiff hydrogels, up to 7 days, presence or absence of TGF-β1) is on record as “failed to affect”.
